Laboratory results reported in patent publication US20240190855A1 (Relay Therapeutics, Inc., priority 2021, published 2024).

Legend:
[1] = test system: CDK2-independent (SKOV3, COV504, COV644) versus CDK2-dependent (COV318, OVCAR3, HCC1569) cell lines; assay: Cell proliferation selectivity assay (CyQUANT Direct Cell Proliferation Assay); assay type: cell-based; conditions: mean of IC50 ratios between each CDK2-independent versus CDK2-dependent cell line; 120 hours incubation
Method: Compounds described herein were also tested in cell proliferation selectivity assays. OVCAR3, HCC1569, and SKOV3 cell lines were obtained from ATCC and cultured as recommended by supplier. COV318, COV504, and COV644 cell lines were obtained from Sigma-Aldrich and were cultured as recommended by supplier. The genetic background and dependency of each cell line was determined using publicly available databases: cBioPortal and DepMap. […] All six cell lines are CDK1-dependent given that CDK1 is an essential gene. Proliferation assay was carried out by seeding cells into 384-well plates at predetermined density (ranging from 150 to 1500 cells per well) in corresponding culture media, followed by brief centrifugation at 1000×g, and culturing cells for 24 hours at 37° C., 5% CO2. The following day, compounds were serially diluted (1l-point, 3-fold dilution scheme with 20 μM as top concentration) and dispensed directly onto cells using Echo 555 acoustic liquid handler (Labcyte). The cells were incubated with the compounds at 37° C., 5% CO2 for 120 hours. Relative number of viable cells in each well was determined using CyQUANT Direct Cell Proliferation Assay Kit (Invitrogen) per manufacturers protocol. The plates were read on EnVision 2105 multimode plate reader (Perkin Elmer) using FITC filter set. Dose response curve fitting and IC50 calculation was done using Genedata Screener software. Proliferation selectivity (i.e. selectivity index) for individual compound was derived as a mean of its IC50 ratios between each CDK2-independent versus CDK2-dependent cell line.

CDK2/Cyclin E complex = biological target: T1, CDK2/Cyclin E complex (Homo sapiens, UniProt P24941); assay: CDK2/Cyclin E fluorescence-based microfluidic mobility shift assay (CDK2 Biochemical Caliper Assay); conditions: read-out: Biochemical CDK2/CyclinE Caliper IC50
T1 construct: purchased Eurofins 14-475
Method in brief: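 Microfluidic mobility-shift readout after EDTA termination measured phosphorylation of fluorescent FL Peptide 18 (1.5 uM final) in a 20 hr room-temperature reaction. Compounds were tested at 11 concentrations (3-fold).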

| IC50 (CDK2/Cyclin E complex) [nM] | SMILES | Proliferation selectivity Index [1] |
| --- | --- | --- |
| – | COCc1cc2c(Nc3cc([C@H]4CC[C@@H](OC(=O)NC(C)C)C4)[nH]n3)nccn2n1 (single isomer, unassigned) [Example I-10] | 24.36 |
| – | Cn1ncc2cnc(Nc3cc([C@H]4C[C@@H](OC(=O)NC5(C)CC5)CO4)[nH]n3)cc21 [Example I-14] | 23.53 |
| – | CC[C@H](C)NC(=O)O[C@H]1CO[C@@H](c2cc(Nc3ccc4c(n3)C(C)(C)NC4=O)n[nH]2)C1 [Example I-1] | 54.25 |
| – | CC(C)NC(=O)O[C@H]1CO[C@@H](c2cc(Nc3nccc4ncsc34)n[nH]2)C1 [Example I-41] | 15.98 |
| – | COCc1cc2c(Nc3cc([C@H]4C[C@@H](OC(=O)NC5(CC(F)(F)F)CC5)CO4)[nH]n3)nccn2n1 [Example I-15] | 23.43 |
| – | COCc1cc2c(Nc3cc([C@@H]4C[C@H](Oc5nncn5C(C)(C)C)CO4)[nH]n3)nccn2n1 [Example I-26] | 18.65 |
| – | COCc1nc2ccnc(Nc3cc([C@H]4C[C@@H](OC(=O)NC(C)C)CO4)[nH]n3)c2s1 [Example I-16] | 22.96 |
| – | CC1(NC(=O)O[C@@H]2CO[C@H](c3cc(Nc4nccc5nccn45)n[nH]3)C2)CC1 [Example I-7] | 27.71 |
| – | CC(C)NC(=O)O[C@H]1CC[C@@H](c2cc(Nc3ncnc4ncccc34)n[nH]2)C1 (single isomer, unassigned) [Example I-20] | 20.15 |
| – | Cn1nc(OCC(F)F)cc1C(=O)Nc1cc([C@H]2C[C@@H](OC(=O)NC34CC(C3)C4)CO2)[nH]n1 [Example I-30] | 18.27 |
| – | COCc1cc2c(Nc3cc([C@H]4C[C@@H](OC(=O)N[C@H](C)C(F)(F)F)CO4)[nH]n3)nccn2n1 [Example I-23] | 19.67 |
| – | C#CC1(NC(=O)O[C@H]2CO[C@@H](c3cc(Nc4nccn5nc(COC)cc45)n[nH]3)C2)CC1 [Example I-36] | 16.79 |
| – | CC1(NC(=O)O[C@H]2CO[C@@H](c3cc(Nc4ccc5nccn5n4)n[nH]3)C2)CC1 [Example I-8] | 27.56 |
| – | COCc1cc2c(Nc3cc([C@H]4C[C@@H](OC(=O)NC(C)C)CO4)[nH]n3)nccn2n1 [Example I-38] | 16.55 |
| – | Cn1nc(COC(F)(F)F)cc1C(=O)Nc1cc([C@@H]2C[C@H](OC(=O)NC3(C)CC3)CO2)[nH]n1 [Example I-18] | 21.63 |
| – | COCc1cc2c(Nc3cc([C@H]4C[C@@H](Oc5nncn5C5(C(F)(F)F)CC5)CO4)[nH]n3)nccn2n1 [Example I-37] | 16.55 |
| – | CC(C)n1cnnc1OC[C@H]1C[C@@H](c2cc(Nc3nccn4nccc34)n[nH]2)C1 [Example I-39] | 16.17 |
| – | COCc1cc2c(Nc3cc([C@@H]4C[C@H](Oc5nncn5C5(C)CC5)CO4)[nH]n3)nccn2n1 [Example I-40] | 16.06 |
| – | CC(C)NC(=O)O[C@@H]1CC[C@H](c2cc(Nc3ncnc4ncccc34)n[nH]2)C1 (single isomer, unassigned) [Example I-4] | 45.05 |
| – | CC(C)NC(=O)O[C@@H]1CO[C@H](c2cc(Nc3nccc4ncsc34)n[nH]2)C1 [Example I-32] | 17.60 |
| – | CC1(NC(=O)O[C@H]2CO[C@@H](c3cc(Nc4ccn5nccc5n4)n[nH]3)C2)CC1 [Example I-5] | 32.74 |
| – | CC(C)NC(=O)OC[C@H]1C[C@@H](c2cc(Nc3nccc4ncsc34)n[nH]2)C1 [Example I-22] | 19.69 |
| – | CCC1(NC(=O)O[C@H]2CO[C@@H](c3cc(Nc4nccn5nc(COC)cc45)n[nH]3)C2)CC1 [Example I-35] | 17.20 |
| – | CC(C)NC(=O)O[C@@H]1CC[C@H](c2cc(Nc3nccn4nccc34)n[nH]2)C1 (single isomer, unassigned) [Example I-17] | 21.85 |
| – | CC(C)NC(=O)OC[C@H]1C[C@@H](c2cc(NC(=O)c3cc(COC(F)(F)F)nn3C)n[nH]2)C1 [Example I-27] | 18.56 |
| – | C[C@H](NC(=O)O[C@@H]1CO[C@H](c2cc(NC(=O)c3cc(COC(F)(F)F)nn3C)n[nH]2)C1)C1CC1 [Example I-13] | 23.74 |
| – | COCc1cc2c(Nc3cc([C@H]4C[C@@H](OC(=O)N[C@]5(C)CC5(F)F)CO4)[nH]n3)nccn2n1 (single isomer, unassigned) [Example I-34] | 17.33 |

| IC50 (CDK2/Cyclin E complex) [nM] | SMILES | Proliferation selectivity Index [1] |
| --- | --- | --- |
| – | CC(C)NC(=O)O[C@H]1CC[C@@H](c2cc(Nc3nccc4ncsc34)n[nH]2)C1 (single isomer, unassigned) [Example I-28] | 18.45 |
| – | CC1(NC(=O)O[C@H]2CO[C@@H](c3cc(Nc4nccc5nccn45)n[nH]3)C2)CC1 [Example I-31] | 17.88 |
| – | Cn1nc(COC(F)(F)F)cc1C(=O)Nc1cc([C@@H]2C[C@H](OC(=O)NC3(C)COC3)CO2)[nH]n1 [Example I-25] | 18.78 |
| – | Cc1cc(CC(=O)Nc2cc([C@@H]3CC[C@H](Oc4nscc4C4CC4)C3)[nH]n2)on1 (single isomer, unassigned) [Example I-21] | 19.98 |
| – | C=C(C)c1ccncc1O[C@H]1CC[C@@H](c2cc(NC(=O)Cc3cc(C)no3)n[nH]2)C1 [Example I-6] | 31.48 |
| 250 to 1000 | COCc1cc(C(=O)Nc2cc([C@H]3C[C@@H](Oc4cnccc4C4CC4)CO3)[nH]n2)n(C)n1 (single isomer, unassigned) [Example 539] | – |
| ≤ 100 | CC(C)NC(=O)OC[C@H]1C[C@@H](c2cc(NC(=O)c3cc(COC(C)C)nn3C)n[nH]2)C1 [Example 652] | – |
| 250 to 1000 | CC1(NC(=O)O[C@H]2CO[C@@H](c3cc(Nc4nccc5[nH]cnc45)n[nH]3)C2)CC1 [Example 730] | – |
| 1000 to 100000 | CS(=O)(=O)N1CCC(Nc2cc(C3CCCC3)[nH]n2)CC1 [Example 857] | – |
| 250 to 1000 | COCc1cc(C(=O)Nc2cc([C@H]3CC[C@@H](c4ccc(C)[nH]c4=O)C3)[nH]n2)n(C)n1 (single isomer, unassigned) [Example 542] | – |
| ≤ 100 | CC(C)c1ccnnc1OC[C@H]1C[C@@H](c2cc(Nc3nccc4ncsc34)n[nH]2)C1 [Example 438] | – |
| 1000 to 100000 | Cc1cc(CC(=O)Nc2cc([C@H]3CC[C@@H](Oc4cncnc4)C3)[nH]n2)on1 (single isomer, unassigned) [Example 362] | – |
| ≤ 100 | CC(C)NC(=O)O[C@H]1CO[C@@H](c2cc(Nc3nccn4nc(CN5CCOCC5)cc34)n[nH]2)C1 [Example 669] | – |
| ≤ 100 | CC(C)NC(=O)O[C@H]1CC[C@@H](c2cc(NC(=O)CN(C)c3ncnc4nc[nH]c34)[nH]n2)C1 (single isomer, unassigned) [Example 375] | – |
| 100 to 250 | Cc1cc(CC(=O)Nc2cc([C@H]3CC[C@H](Cc4nncn4C(C)C)C3)[nH]n2)on1 (single isomer, unassigned) [Example 373] | – |
| ≤ 100 | CO[C@H](C)c1cc2c(Nc3cc([C@H]4C[C@@H](OC(=O)NC5(C)CC5)CO4)[nH]n3)nccn2n1 (single isomer, unassigned) [Example 892] | – |
| 1000 to 100000 | CC1Cc2nc(Nc3cc(C4CCCC4)[nH]n3)ncc2C(C)O1 (centres unmarked) [Example 809] | – |
| 1000 to 100000 | COCc1cc(C(=O)Nc2cc([C@H]3CC[C@@H](Oc4ccccc4)C3)[nH]n2)n(C)n1 (single isomer, unassigned) [Example 364] | – |
| ≤ 100 | CNC(=O)O[C@H]1CC[C@@H](c2cc(Nc3ccc4c(n3)C(C)(C)NC4=O)n[nH]2)C1 (single isomer, unassigned) [Example 530] | – |
| 1000 to 100000 | Cc1cc(CC(=O)Nc2cc([C@H]3CC[C@@H](CC(=O)O)C3)[nH]n2)on1 (single isomer, unassigned) [Example 341] | – |
| ≤ 100 | CC(C)NC(=O)O[C@@H]1CC[C@H](c2cc(Nc3cncc(OCCO)n3)n[nH]2)C1 (single isomer, unassigned) [Example 563] | – |
| ≤ 100 | CC1(NC(=O)O[C@H]2CO[C@@H](c3cc(Nc4nccn5nc(COC(F)(F)F)cc45)n[nH]3)C2)CC1 [Example 897] | – |
| ≤ 100 | COCc1cc2c(Nc3cc([C@@H]4C[C@H](Oc5nncn5C(C)(C)C)CO4)[nH]n3)nccn2n1 [Example 742] | – |
| ≤ 100 | Cn1nc(OC(F)(F)Cl)cc1C(=O)Nc1cc([C@H]2C[C@@H](OC(=O)NC3(C)CC3)CO2)[nH]n1 [Example 882] | – |
| ≤ 100 | CC(=O)Nc1cc([C@H]2CC[C@@H](Oc3nnccc3C(C)C)C2)[nH]n1 (single isomer, unassigned) [Example 427] | – |
| 1000 to 100000 | COCc1cc2c(Nc3cc([C@H]4C[C@@H](OC(=O)N[C@H]5CC[C@@H](OC)CC5)CO4)[nH]n3)nccn2n1 [Example 693] | – |
